Where “and” joins values, the source holds several entries; their conditions need not be identical. Equal entries are not always repeated. Inconclusive results and toxic doses are left out.
Test system: L1210 leukemia ip in BDF1 mice, survival T/C
Assay: NCI In Vivo Anticancer Drug Screen. Data for tumor model L1210 Leukemia (intraperitoneal) in B6D2F1 (BDF1) mice
Conditions: endpoint: mean survival time, higher = longer survival
Outline: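 Transplantable tumor model; survival measured in treated vs vehicle control mice. Value = treated/control.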

[1] = dose: 100.0 mg/kg/injection, schedule: Q01DX001 (ip), vehicle: saline with Tween-80
[2] = dose: 200.0 mg/kg/injection, schedule: Q01DX001 (ip), vehicle: saline with Tween-80
[3] = dose: 400.0 mg/kg/injection, schedule: Q01DX001 (ip), vehicle: saline with Tween-80
[4] = dose: 100.0 mg/kg/injection, schedule: Q01DX009 (ip), vehicle: Klucel (hydroxypropylcellulose) (HPC)
[5] = dose: 100.0 mg/kg/injection, schedule: Q04DX002 (ip), vehicle: Klucel (hydroxypropylcellulose) (HPC)
[6] = dose: 200.0 mg/kg/injection, schedule: Q01DX009 (ip), vehicle: Klucel (hydroxypropylcellulose) (HPC)
[7] = dose: 400.0 mg/kg/injection, schedule: Q01DX009 (ip), vehicle: Klucel (hydroxypropylcellulose) (HPC)
[8] = dose: 400.0 mg/kg/injection, schedule: Q04DX002 (ip), vehicle: Klucel (hydroxypropylcellulose) (HPC)
[9] = dose: 200.0 mg/kg/injection, schedule: Q01DX Z (ip), vehicle: saline
[10] = dose: 100.0 mg/kg/injection, schedule: Q01DX001 (ip), vehicle: saline
[11] = dose: 100.0 mg/kg/injection, schedule: Q04DX003 (ip), vehicle: Klucel (hydroxypropylcellulose) (HPC)
[12] = dose: 200.0 mg/kg/injection, schedule: Q04DX003 (ip), vehicle: Klucel (hydroxypropylcellulose) (HPC)
[13] = dose: 400.0 mg/kg/injection, schedule: Q04DX003 (ip), vehicle: Klucel (hydroxypropylcellulose) (HPC)
[14] = dose: 200.0 mg/kg/injection, schedule: Q04DX002 (ip), vehicle: Klucel (hydroxypropylcellulose) (HPC)
[15] = dose: 50.0 mg/kg/injection, schedule: Q01DX009 (ip), vehicle: saline with Tween-80
[16] = dose: 100.0 mg/kg/injection, schedule: Q01DX009 (ip), vehicle: saline with Tween-80
[17] = dose: 200.0 mg/kg/injection, schedule: Q01DX009 (ip), vehicle: saline with Tween-80

CCC1=C(C)C(=O)Nc2c3ncnc-3ncn2C1O (stereo not drawn)
T/C [1]: 100 % of control | T/C [2]: 105 % of control | T/C [3]: 103 % of control

Cc1cc(=O)n2c3c(cc(C#N)cc13)OC2
T/C [4]: 90 % of control | T/C [5]: 96 % of control | T/C [6]: 98 % of control | T/C [7]: 95 % of control | T/C [8]: 89 % of control

COC(=O)c1ccc(N=Nc2ncc(CCNC(=O)C(F)(F)F)[nH]2)cc1
T/C [1]: 97 % of control | T/C [2]: 96 % of control | T/C [3]: 111 % of control

CN(C)c1nc(C(=O)O)cc(=O)[nH]1
T/C (dose: 100.0 mg/kg/injection, schedule: Q01DX Z (ip), vehicle: saline): 101 % of control | T/C [9]: 100 % of control

Cc1ccc(-c2ccc(C)s2)s1
T/C (dose: 50.0 mg/kg/injection, schedule: Q01DX009 (ip), vehicle: acetone): 95 % of control | T/C (dose: 100.0 mg/kg/injection, schedule: Q01DX009 (ip), vehicle: acetone): 90 % of control | T/C (dose: 100.0 mg/kg/injection, schedule: Q04DX003 (ip), vehicle: saline): 96 % of control | T/C (dose: 200.0 mg/kg/injection, schedule: Q01DX009 (ip), vehicle: acetone): 90 % of control | T/C (dose: 200.0 mg/kg/injection, schedule: Q04DX003 (ip), vehicle: saline): 93 % of control | T/C (dose: 400.0 mg/kg/injection, schedule: Q04DX003 (ip), vehicle: saline): 100 % of control

CCCC(CN(CCN(C)C)Cc1ccccc1)c1ccc(OC)cc1 (stereo not drawn)
T/C [10]: 101 % of control

Cc1cc2oc(/C=C/C(=O)c3ccc([N+](=O)[O-])cc3)c(C)c2cc1C
T/C [11]: 97 % of control | T/C [12]: 90 % of control | T/C [13]: 100 % of control

OC1(Cc2ccccc2)CCCCCC1
T/C (dose: 100.0 mg/kg/injection, schedule: Q01DX005 (ip), vehicle: other): 118 % of control | T/C (dose: 100.0 mg/kg/injection, schedule: Q01DX009 (ip), vehicle: other): 103 % of control | T/C (dose: 200.0 mg/kg/injection, schedule: Q01DX005 (ip), vehicle: other): 93 % of control | T/C (dose: 200.0 mg/kg/injection, schedule: Q01DX009 (ip), vehicle: other): 118 % of control | T/C (dose: 400.0 mg/kg/injection, schedule: Q01DX005 (ip), vehicle: other): 93 % of control | T/C (dose: 400.0 mg/kg/injection, schedule: Q01DX009 (ip), vehicle: other): 100 % of control

CCOC(=O)/C=C\CC(O)CC (stereo not drawn)
T/C [4]: 105 % of control | T/C [11]: 98 % of control | T/C [6]: 105 % of control | T/C [12]: 104 % of control | T/C [7]: 118 % of control | T/C [13]: 114 % of control

CC(=O)Nc1nnc(SC(C)=O)s1
T/C [4]: 95 % of control and 90 % of control | T/C [6]: 95 % of control | T/C [7]: 93 % of control and 94 % of control

COC(=O)CCN1CCN(c2ccccc2)CC1
T/C [10]: 98 % of control | T/C (dose: 200.0 mg/kg/injection, schedule: Q01DX001 (ip), vehicle: saline): 98 % of control | T/C (dose: 400.0 mg/kg/injection, schedule: Q01DX001 (ip), vehicle: saline): 97 % of control

NC(CSS(=O)(=O)O)=NCCCCOc1ccccc1
T/C (dose: 6.25 mg/kg/injection, schedule: Q04DX002 (ip), vehicle: Klucel (hydroxypropylcellulose) (HPC)): 111 % of control | T/C (dose: 12.5 mg/kg/injection, schedule: Q04DX002 (ip), vehicle: Klucel (hydroxypropylcellulose) (HPC)): 89 % of control | T/C (dose: 25.0 mg/kg/injection, schedule: Q04DX002 (ip), vehicle: Klucel (hydroxypropylcellulose) (HPC)): 108 % of control | T/C [5]: 97 % of control

CC(=O)OCCc1ccc2c(c1)OCO2
T/C [5]: 97 % of control | T/C [14]: 112 % of control | T/C [8]: 115 % of control

CCOC(CN1C(=O)c2ccccc2C1=O)OCC
T/C [15]: 96 % of control | T/C [16]: 96 % of control | T/C [17]: 93 % of control

CC1=C(OCC(C)C)CCCC1=O
T/C [15]: 88 % of control | T/C [16]: 96 % of control | T/C [17]: 96 % of control

O=C(Oc1ccccc1)C(Cc1ccccc1)(Cc1ccccc1)C(=O)Oc1ccccc1
T/C (dose: 100.0 mg/kg/injection, schedule: Q01DX001 (ip), vehicle: carboxymethylcellulose (CMC)): 101 % of control | T/C (dose: 200.0 mg/kg/injection, schedule: Q01DX001 (ip), vehicle: carboxymethylcellulose (CMC)): 95 % of control | T/C (dose: 400.0 mg/kg/injection, schedule: Q01DX001 (ip), vehicle: carboxymethylcellulose (CMC)): 93 % of control

COc1cc(/C(C)=N/N=C(\C)c2ccc(O)c(OC)c2)ccc1O
T/C (dose: 100.0 mg/kg/injection, schedule: Q01DX009 (ip), vehicle: saline): 94 % of control | T/C (dose: 200.0 mg/kg/injection, schedule: Q01DX009 (ip), vehicle: saline): 90 % of control | T/C (dose: 400.0 mg/kg/injection, schedule: Q01DX009 (ip), vehicle: saline): 90 % of control

CC1(C)N=C(N)N=C(N)N1c1ccc(/C=C/C(=O)Nc2ccc(S(=O)(=O)F)cc2)cc1
T/C (dose: 75.0 mg/kg/injection, schedule: Q01DX001 (ip), vehicle: Klucel (hydroxypropylcellulose) (HPC)): 97 % of control | T/C (dose: 150.0 mg/kg/injection, schedule: Q01DX001 (ip), vehicle: Klucel (hydroxypropylcellulose) (HPC)): 92 % of control

C=CCC(CCCCCCCCCCC)C(=O)O (stereo not drawn)
T/C [1]: 111 % of control | T/C [2]: 97 % of control | T/C [3]: 90 % of control

CC(C)N(C)C(C)(C)CO
T/C (dose: 100.0 mg/kg/injection, schedule: Q04DX003 (ip), vehicle: saline sonified): 92 % of control | T/C (dose: 200.0 mg/kg/injection, schedule: Q04DX003 (ip), vehicle: saline sonified): 106 % of control

COc1ccc2c(ccc[n+]2C)c1
T/C (dose: 11.0 mg/kg/injection, schedule: Q01DX009 (ip), vehicle: saline): 103 % of control | T/C (dose: 12.5 mg/kg/injection, schedule: Q01DX009 (ip), vehicle: saline): 102 % of control | T/C (dose: 12.5 mg/kg/injection, schedule: Q04DX003 (ip), vehicle: saline with Tween-80): 96 % of control | T/C (dose: 16.5 mg/kg/injection, schedule: Q01DX009 (ip), vehicle: saline): 117 % of control | T/C (dose: 25.0 mg/kg/injection, schedule: Q01DX009 (ip), vehicle: saline): 109 % of control and 110 % of control | T/C (dose: 25.0 mg/kg/injection, schedule: Q04DX003 (ip), vehicle: saline with Tween-80): 102 % of control | T/C (dose: 33.0 mg/kg/injection, schedule: Q01DX009 (ip), vehicle: saline): 113 % of control | T/C (dose: 37.5 mg/kg/injection, schedule: Q01DX009 (ip), vehicle: saline): 115 % of control | T/C (dose: 50.0 mg/kg/injection, schedule: Q01DX009 (ip), vehicle: saline): 115 % of control and 87 % of control | T/C (dose: 50.0 mg/kg/injection, schedule: Q04DX003 (ip), vehicle: saline with Tween-80): 100 % of control | T/C (dose: 75.0 mg/kg/injection, schedule: Q01DX001 (ip), vehicle: carboxymethylcellulose (CMC)): 108 % of control

CCOC(=O)C(C#N)C(C)CC(C)C (stereo not drawn)
T/C (dose: 50.0 mg/kg/injection, schedule: Q01DX001 (ip), vehicle: saline with Tween-80): 102 % of control | T/C [1]: 102 % of control | T/C [2]: 93 % of control

CCOc1ccccc1NC(=S)Nc1ccc([N+](=O)[O-])cc1
T/C [15]: 92 % of control | T/C [16]: 92 % of control | T/C [17]: 95 % of control

O=C(COc1ccc(Cl)cc1Cl)Nc1ccc(-c2ccc(NC(=O)COc3ccc(Cl)cc3Cl)cc2)cc1
T/C (dose: 50.0 mg/kg/injection, schedule: Q04DX002 (ip), vehicle: Klucel (hydroxypropylcellulose) (HPC)): 89 % of control | T/C [5]: 89 % of control | T/C [14]: 100 % of control

CSc1ccc(OC(=O)Nc2ccccc2F)cc1
T/C [15]: 108 % of control | T/C [16]: 103 % of control

CN(Cc1cnc2nc(N)nc(N)c2n1)c1c(Cl)cc(C(=O)NC(CCC(=O)O)C(=O)O)cc1Br (stereo not drawn)
T/C (dose: 12.5 mg/kg/injection, schedule: Q01DX Z (ip), vehicle: saline): 162 % of control | T/C (dose: 25.0 mg/kg/injection, schedule: Q01DX Z (ip), vehicle: saline): 196 % of control | T/C (dose: 50.0 mg/kg/injection, schedule: Q01DX Z (ip), vehicle: saline): 241 % of control and 267 % of control | T/C [9]: 101 % of control
